Experimental findings from PubChem BioAssay (NCI) are described below.

SMILES strings stand for the structures. Several values for one entry are separate records, joined by “and”; a condition that tells them apart may be missing. Identical values can stand only once.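 Following 48 hours of exposure in 96-well plates, responses at five concentrations were used to interpolate endpoints linearly. GI50 is the concentration that inhibits growth by half. TGI denotes the concentration required for complete inhibition of growth.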 Some results are limits rather than exact numbers.

The first assay has as its system ACHN renal. Nature of the assay: inhibition of tumour cell growth, NCI panel, 48 h.
`O=C1c2ccccc2N2OC3(N4CCCC4)CCCC3C12c1ccccc1` (stereo not given) came in with a TGI of over 100 µM.
Still for that read-out and setting: the value for `COc1ccc(C2C(Cl)C(=O)N2n2cnc3ccccc3c2=O)cc1OC` (stereo not given) was over 100 µM.
On the same count and under the same terms, to `Nc1nc2c(ncn2Cc2ccccc2CCO)c(=O)[nH]1` belongs over 100 µM; to `CC[N+]1(C)CCC(O)(c2ccc(C)cc2)C(C(=O)c2ccc(C)cc2)C1` (stereo not given), 48 µM; to `CCC1(Br)C(=O)NC(=O)N(C2CC(O)C(CO)O2)C1N=[N+]=[N-]` (stereo not given), over 100 µM.
The same measure, in the same setting: the value for `O=[N+]([O-])c1ccc(N=Nc2c(O)[nH]c3ccc([N+](=O)[O-])cc23)cc1` was 76.4 µM; that for `CC12CC3(C)CC(C)(C1)CC(N=[N+]=[N-])(C2)C3` was over 100 µM; that for `N=C(N)SCc1cn2ccccc2n1` was over 100 µM.
Turning to `Fc1cccc(Cl)c1C1SCc2nc3ccccc3n21` (stereo not given), the TGI was over 100 µM.
On the same count and under the same terms, the value for `COc1cc2nncc(Sc3cnnc4ccccc34)c2cc1OC` was 51.9 µM.
The same measure, in the same setting: the value for `COC(=O)C1=CCON(c2ccccc2)C1c1ccccc1` (stereo not given) was over 100 µM.
Consider `Nc1cc(N)c2nc(-c3ccccc3)c(Oc3ccc(F)cc3)nc2c1`, for which the GI50 is 21.8 µM and the TGI came to 85.9 µM.
Consider `CC(=O)N(CCN)CCN`, for which the TGI was over 100 µM.
Same read-out and setting: to `Cc1cc(O)c2c(c1)C(O)(c1ccc3c(c1O)C(=O)c1c(O)cc(C)cc1C3(O)C1OC(CO)C(O)C(O)C1O)c1cccc(O)c1C2=O` (stereo not given) belongs 25.8 µM.
Same read-out and setting: to `COC(=O)c1nc(NN)[nH]c(=O)c1CCCCCc1c(C(=O)OC)[nH]c(NN)cc1=O` belongs over 100 µM; to `CC1(C)C(=O)C(O)=CC2C1=CCC1C2(C)C(=O)CC2(C)C(C(C)(O)C(=O)CC(O)C(C)(C)O)C(O)CC12C` (stereo not given), 16.2 µM.
The molecule `CCc1ccccc1NC(=O)C(=O)C(C(=O)c1ccc(OC)cc1)c1ccc(OC)cc1` (stereo not given) displayed a TGI of over 100 µM.
Same read-out and setting: to `C/C(=N/N(C=O)C[n+]1ccccc1)C(CN(CC(C)C)CC(C)C)C(=O)Nc1ccc(C)cc1C` (stereo not given) belongs over 100 µM.
On to `COc1cc(C2c3cc4c(cc3[C@@H](Nc3ccc(N(C)C)cc3)[C@H]3COC(=O)C23)OCO4)cc(OC)c1O` (stereo not given in full), for which the GI50 was 0.0694 µM; the TGI is 0.999 µM and 1.34 µM.
`O=c1nc(-c2ccccc2)c2c3c(cccn13)CCC2` came in with a TGI of over 100 µM.
Regarding `COc1ccc([C@H]2CC(=O)N3CCCC3N2)cc1` (stereo not given in full), the TGI is over 100 µM.
Same read-out and setting: to `O=C(c1ccccc1)c1c(CC(O)c2cccnc2)n(C(=O)c2ccccc2)c2ccccc12` (stereo not given) belongs 82.7 µM.
The same measure, in the same setting: to `C=C(C)C1CC2C(C)=C(OC(C)=O)C1n1c(=O)c3cc4ccccc4cc3c(=O)n12` (stereo not given) belongs over 100 µM.
As for `COc1cc(Nc2ccnc(N3CCN(c4ccnc5cc(Cl)ccc45)CC3)n2)cc(OC)c1`, the GI50 was 2.04 µM and the TGI was over 100 µM.
`O=C(CCc1nc(=S)[nH][nH]1)NC12CC3CC(CC(C3)C1)C2` displayed a TGI of over 100 µM.
The same measure, in the same setting: to `COc1ccc(C(C2=C(C)C(=O)c3ccccc3C2=O)c2ccc(C(C)C)cc(=O)c2O)cc1` (stereo not given) belongs 9.96 µM; to `CC(C)N(C(=O)C12C3C4C1C1C2C3C41C(O)C(C)(C)C)C(C)C` (stereo not given), over 50 µM.

The test system of a further assay is COLO 205 colon. Briefly: inhibition of tumour cell growth, NCI panel, 48 h.
Take `O=C1c2ccccc2N2OC3(N4CCCC4)CCCC3C12c1ccccc1` (stereo not given): the TGI is over 100 µM.
On the same count and under the same terms, the value for `COc1ccc(C2C(Cl)C(=O)N2n2cnc3ccccc3c2=O)cc1OC` (stereo not given) was over 100 µM.
On the same count and under the same terms, to `Nc1nc2c(ncn2Cc2ccccc2CCO)c(=O)[nH]1` belongs over 100 µM.
Still for that read-out and setting: the value for `CC[N+]1(C)CCC(O)(c2ccc(C)cc2)C(C(=O)c2ccc(C)cc2)C1` (stereo not given) was 55.7 µM.
The molecule `CCC1(Br)C(=O)NC(=O)N(C2CC(O)C(CO)O2)C1N=[N+]=[N-]` (stereo not given) yielded a TGI of over 100 µM.
Still for that read-out and setting: the value for `O=[N+]([O-])c1ccc(N=Nc2c(O)[nH]c3ccc([N+](=O)[O-])cc23)cc1` was over 100 µM; that for `CC12CC3(C)CC(C)(C1)CC(N=[N+]=[N-])(C2)C3` was over 100 µM.
For `N=C(N)SCc1cn2ccccc2n1`, the TGI was over 100 µM.
As to `Clc1ccc([O][In]([O]c2ccc(Cl)cn2)[O]c2ccc(Cl)cn2)nc1`, the GI50 is over 100 µM and the TGI was over 100 µM.
As for `Fc1cccc(Cl)c1C1SCc2nc3ccccc3n21` (stereo not given), the TGI was 47.3 µM.
Same read-out and setting: to `COc1cc2nncc(Sc3cnnc4ccccc34)c2cc1OC` belongs over 100 µM; to `COC(=O)C1=CCON(c2ccccc2)C1c1ccccc1` (stereo not given), over 100 µM.
As to `Nc1cc(N)c2nc(-c3ccccc3)c(Oc3ccc(F)cc3)nc2c1`, the GI50 was 20 µM and the TGI is 36.5 µM.
`CC(=O)N(CCN)CCN` displayed a TGI of over 10 µM.
The same measure, in the same setting: the value for `COC(=O)c1nc(NN)[nH]c(=O)c1CCCCCc1c(C(=O)OC)[nH]c(NN)cc1=O` was over 100 µM; that for `CC1(C)C(=O)C(O)=CC2C1=CCC1C2(C)C(=O)CC2(C)C(C(C)(O)C(=O)CC(O)C(C)(C)O)C(O)CC12C` (stereo not given) was over 100 µM; that for `CCc1ccccc1NC(=O)C(=O)C(C(=O)c1ccc(OC)cc1)c1ccc(OC)cc1` (stereo not given) was over 100 µM.
Same read-out and setting: the value for `C/C(=N/N(C=O)C[n+]1ccccc1)C(CN(CC(C)C)CC(C)C)C(=O)Nc1ccc(C)cc1C` (stereo not given) was over 100 µM.
Regarding `COc1cc(C2c3cc4c(cc3[C@@H](Nc3ccc(N(C)C)cc3)[C@H]3COC(=O)C23)OCO4)cc(OC)c1O` (stereo not given in full), the GI50 is 3.51 µM; the TGI was 8.04 µM and 18.9 µM.
The molecule `COc1ccc([C@H]2CC(=O)N3CCCC3N2)cc1` (stereo not given in full) displayed a TGI of over 100 µM.
Same read-out and setting: to `O=C(c1ccccc1)c1c(CC(O)c2cccnc2)n(C(=O)c2ccccc2)c2ccccc12` (stereo not given) belongs 40.6 µM; to `C=C(C)C1CC2C(C)=C(OC(C)=O)C1n1c(=O)c3cc4ccccc4cc3c(=O)n12` (stereo not given), over 100 µM.
The same measure, in the same setting: the value for `O=C(CCc1nc(=S)[nH][nH]1)NC12CC3CC(CC(C3)C1)C2` was over 100 µM; that for `COc1ccc(C(C2=C(C)C(=O)c3ccccc3C2=O)c2ccc(C(C)C)cc(=O)c2O)cc1` (stereo not given) was 20.7 µM.
The same measure, in the same setting: the value for `CC(C)N(C(=O)C12C3C4C1C1C2C3C41C(O)C(C)(C)C)C(C)C` (stereo not given) was over 50 µM.

Another assay has as its system HCC-2998 colon. Briefly: inhibition of tumour cell growth, NCI panel, 48 h.
`O=C1c2ccccc2N2OC3(N4CCCC4)CCCC3C12c1ccccc1` (stereo not given) showed a TGI of over 100 µM.
In turn, `COc1ccc(C2C(Cl)C(=O)N2n2cnc3ccccc3c2=O)cc1OC` (stereo not given) yielded a TGI of over 100 µM.
In turn, `Nc1nc2c(ncn2Cc2ccccc2CCO)c(=O)[nH]1` gave a TGI of over 100 µM.
`CC[N+]1(C)CCC(O)(c2ccc(C)cc2)C(C(=O)c2ccc(C)cc2)C1` (stereo not given): the TGI was over 100 µM.
Same read-out and setting: the value for `CCC1(Br)C(=O)NC(=O)N(C2CC(O)C(CO)O2)C1N=[N+]=[N-]` (stereo not given) was over 100 µM; that for `CC12CC3(C)CC(C)(C1)CC(N=[N+]=[N-])(C2)C3` was over 100 µM; that for `N=C(N)SCc1cn2ccccc2n1` was over 100 µM.
